Test results published in US20220128557A1, “[…] METHODS FOR REAL-TIME CELL MONITORING” (PHENOFAST LTD., priority 2019, published 2022).

System: E. coli
Test: Classical method of serial antibiotic dilution for MIC
Format: cell-based
Details: FIG. 7E
Protocol: FIGS. 7A-7E: (7A-7D) Scatter plots, with best fit lines of optical output measured by intensity shift as a function of time, performed on a series of 6 semi-stable sucrose coated grating units in parallel inoculated with E. coli cells and treated an hour later with (7A) 0 μg, (7B) 2.5 μg, (7C) 5.0 μg, and (7D) 7.5 μg of G418. (7E) A photograph of the classical serial dilution method for determining the MIC of G418 for treating E. coli.
By monitoring the diffraction over time, a range for minimum inhibitory concentration (MIC) was established (FIG. 7A-D). A control well received no antibiotic and normal logarithmic growth was observed (FIG. 7A). […] This would place the MIC at between 2.5 and 5.0 which was the same as the range (2.3-4.7 μg) found by the classical method of serial antibiotic dilution (FIG. 7E).

CN[C@@H]1[C@@H](O)[C@@H](O[C@@H]2[C@@H](O)[C@H](O[C@H]3O[C@H]([C@@H](C)O)[C@@H](O)[C@H](O)[C@H]3N)[C@@H](N)C[C@H]2N)OC[C@]1(C)O [G418]
MIC range found by classical serial antibiotic dilution: 2.3 to 4.7 µg
